According to patent publication US6328992A, “Cannabinoid patch and method for cannabis transdermal delivery” (priority 2000, dated 2001):

Key:
[1] = from patch of Example A; human cadaver epidermis, 37 degree Celsius, seven days
[2] = prior experimentation; cited from earlier work
[3] = solubility of THC in aqueous and ionic solutions; format: physicochemical
Text: Furthermore, THC is insoluble with many solutions, including aqueous and ionically charged solutions. An application of an ionic aqueous solution to a porous material will hinder the diffusion rate of THC through the material and decrease flux of cannabis. Therefore, an appropriate combination of porous THC absorbing material, combined with a solution that is insoluble with THC, can form a suitable rate control means. An example of such a rate controlling membrane includes mixing salt water with a porous rubber membrane that covers the cavity. The thickness of the porous rubber membrane, the concentration of the salt water, and the amount of available cannabis in the cavity are optimized experimentally to create a desired flux of THC to the patient's skin. Evaporation of necessary fluids may be prevented by a protective backing layer.

Compound | individual cannabinoid flux [1] | diffusion through porous materials such as rubber and plastic [2] | solubility with aqueous and ionically charged solutions [3]
C=C(C)[C@@H]1CCC(C)=C[C@H]1c1c(O)cc(CCCCC)cc1O [CBD, cannabidiol] | 5.25 micrograms per square centimeter per hour | – | –
CCCCCc1cc(O)c2c(c1)OC(C)(C)c1ccc(C)cc1-2 [CBN, cannabinol] | 4.8 micrograms per square centimeter per hour | – | –
CCCCCc1cc(O)c2c(c1)OC(C)(C)[C@@H]1CCC(C)=C[C@@H]21 [THC, tetrahydrocannabinol] | – | diffuse rapidly | insoluble
CCCCCc1cc(O)c2c(c1)OC(C)(C)C1CC=C(C)CC21 (stereo not drawn) [delta 8 THC] | 0.45 micrograms per square centimeter per hour | – | –
CCCCCc1cc(O)c2c(c1)OC(C)(C)C1CCC(C)=CC21 (stereo not drawn) [delta 9 THC] | 4.5 micrograms per square centimeter per hour | – | –
